Data: patent publication US7928231B2, “Thienopyrazoles” (priority 2003, dated 2011)

Key:
ITK = biological target: T1, ITK (Homo sapiens, UniProt Q08881); experiment: FlashPlate ITK protocol for ITK inhibition determination (ITK autophosphorylation, [γ-33P]ATP); type: biochemical; conditions: MBP-tagged ITK, read-out: IC50 (enzyme inhibition)-
T1 construct: made in house
T1 sequence (Q08881 1-620): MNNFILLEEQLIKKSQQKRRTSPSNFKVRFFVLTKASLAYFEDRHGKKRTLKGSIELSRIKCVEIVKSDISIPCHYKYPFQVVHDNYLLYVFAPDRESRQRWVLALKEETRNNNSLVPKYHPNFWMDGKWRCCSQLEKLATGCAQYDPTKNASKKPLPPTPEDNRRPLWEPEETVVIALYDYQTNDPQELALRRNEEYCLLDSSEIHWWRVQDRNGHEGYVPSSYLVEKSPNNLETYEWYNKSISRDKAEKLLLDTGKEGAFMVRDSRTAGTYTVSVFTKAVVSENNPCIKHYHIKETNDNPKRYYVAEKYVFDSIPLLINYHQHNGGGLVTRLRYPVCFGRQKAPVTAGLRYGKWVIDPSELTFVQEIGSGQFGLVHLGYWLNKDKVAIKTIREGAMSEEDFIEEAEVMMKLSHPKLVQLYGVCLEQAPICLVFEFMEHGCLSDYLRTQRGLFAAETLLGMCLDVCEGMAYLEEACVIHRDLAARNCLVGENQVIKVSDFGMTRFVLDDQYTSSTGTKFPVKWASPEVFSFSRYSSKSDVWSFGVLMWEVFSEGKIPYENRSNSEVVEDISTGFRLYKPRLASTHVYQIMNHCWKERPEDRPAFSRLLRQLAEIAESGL
Description: ITK kinase is produced with an N-terminal Maltose Binding Protein tag (MW=˜114 kDa) using a Baculovirus expression system. The transfer of radioactive [γ-^33P] phosphate from [γ-^33P]ATP to ITK during the autophosphorylation of ITK is measured by scintillation counting. Streptavidin-coated FlashPlate Plus™ 384 well microplates (PerkinElmer Life Sciences) are designed for in-plate radiometric assays. The interior of each well is permanently coated with a thin layer of scintillant and a covalently bound layer of Streptavidin. ITK is incubated with [γ-^33P]ATP, biotinylated anti-MBP antibody (Cell Signaling Technology™) and test compounds in a 384-well Streptavidin-coated FlashPlate. The biotinylated anti-MBP binds tightly to the MBP-tagged ITK and cross-links it to Streptavidin on the plate surface. Unreacted ^33P-ATP is washed away and ^33P-phosphorylated ITK is measured when the [γ-^33P] incorporated into ITK stimulates the scintillant on the well to emit light. Radioactivity is assessed in a Packard
TopCount scintillation counter. Reagents are pipetted and dispensed using Beckman Biomek robotic equipment. Test compounds (2 μl per well) are pre-diluted from 1 mM 100% dimethyl sulfoxide solutions into water containing 30% dimethyl sulfoxide to produce dose response curves (10 point curves from (final) 30 μM to ˜1 nM); all tests are performed in duplicate. Background binding is assessed by substituting the enzyme inhibitor EDTA (25 mM final concentration) for test compound and maximal binding is assessed by inclusion of assay buffer instead of compound. Test compounds are added to the wells first (2 μl) followed by 10 μl enzyme solution in assay buffer. After 30 minutes pre-incubation, all other reagents are added in a 10 μl volume. The final reagent concentrations/well are as follows: 20 nM enzyme, 0.25 μCi [γ-^33P]ATP, assay buffer: 20 mM HEPES (pH 7.5), 0.15 M NaCl, 3 mM MgCl2, 3 mM MnCl2, 0.01% Triton X-100, 1 mM DTT, 5% glycerol and 0.01% γ-globulin. The plate is incubated at room temperature (RT) for 60 minutes for the kinase reaction. The reaction is stopped with 20 μl of 50 mM EDTA and the biotinylated anti-MBP is allowed to bind to the ITK and the Streptavidin for a further 60 minutes at RT. The unbound reagents are washed away with 2×100 μl phosphate-buffered saline (PBS). Radioactivity is measured for 45 sec/well.

- IC50 (ITK): 224 nM
- melting point: 234 to 236 °C
SMILES: COc1ccc2[nH]c(-c3n[nH]c4ccsc34)cc2n1 [Example 60, 5-Methoxy-2-(1H-thieno[3,2-c]pyrazol-3-yl)-1H-pyrrolo[3,2-b]pyridine]
